Experimental data reported in PubChem BioAssay (NCI).
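Method: 48-hour compound exposure of cells in 96-well plates, five concentrations, linear interpolation of endpoints. GI50: concentration for 50% inhibition of growth. The concentration for full growth arrest is given as TGI.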

Tests used:
Assay in all cases: DTP human tumour cell line panel, 48 h
MDA-MB-435 = system: MDA-MB-435
NCI-H460 lung = system: NCI-H460 lung
NCI/ADR-RES ovarian = system: NCI/ADR-RES ovarian
OVCAR-4 ovarian = system: OVCAR-4 ovarian
SW-620 colon = system: SW-620 colon
SF-539 CNS = system: SF-539 CNS
SK-MEL-28 melanoma = system: SK-MEL-28 melanoma
MDA-MB-231 breast = system: MDA-MB-231 breast
LOX IMVI melanoma = system: LOX IMVI melanoma
BT-549 breast = system: BT-549 breast
U251 CNS = system: U251 CNS
M14 melanoma = system: M14 melanoma
RXF 393 renal = system: RXF 393 renal
786-0 renal = system: 786-0 renal
HCT-15 colon = system: HCT-15 colon
HCT-116 colon = system: HCT-116 colon
DU-145 prostate = system: DU-145 prostate
HL-60(TB) leukemia = system: HL-60(TB) leukemia
UACC-62 melanoma = system: UACC-62 melanoma
NCI-H23 lung = system: NCI-H23 lung
PC-3 prostate = system: PC-3 prostate
IGROV1 ovarian = system: IGROV1 ovarian
ACHN renal = system: ACHN renal
OVCAR-8 ovarian = system: OVCAR-8 ovarian
TK-10 renal = system: TK-10 renal
A549 NSCLC = system: A549 NSCLC
MALME-3M melanoma = system: MALME-3M melanoma
UO-31 renal = system: UO-31 renal
MOLT-4 leukemia = system: MOLT-4 leukemia
SF-295 CNS = system: SF-295 CNS
K-562 leukemia = system: K-562 leukemia
UACC-257 melanoma = system: UACC-257 melanoma
HOP-92 NSCLC = system: HOP-92 NSCLC
MCF7 breast = system: MCF7 breast
SR leukemia = system: SR leukemia
SF-268 CNS = system: SF-268 CNS
SNB-75 CNS = system: SNB-75 CNS
OVCAR-3 ovarian = system: OVCAR-3 ovarian
EKVX NSCLC = system: EKVX NSCLC
SNB-19 CNS = system: SNB-19 CNS
HS 578T breast = system: HS 578T breast
SK-OV-3 ovarian = system: SK-OV-3 ovarian
KM12 colon = system: KM12 colon
HT29 colon = system: HT29 colon
SN12C renal = system: SN12C renal
SK-MEL-2 melanoma = system: SK-MEL-2 melanoma
CAKI-1 renal = system: CAKI-1 renal
NCI-H522 lung = system: NCI-H522 lung
SK-MEL-5 melanoma = system: SK-MEL-5 melanoma
HOP-62 NSCLC = system: HOP-62 NSCLC
OVCAR-5 ovarian = system: OVCAR-5 ovarian
NCI-H226 lung = system: NCI-H226 lung
T-47D breast = system: T-47D breast
A498 renal = system: A498 renal
CCRF-CEM leukemia = system: CCRF-CEM leukemia
RPMI-8226 leukemia = system: RPMI-8226 leukemia

`COc1ccc2c(c1)n([O-])c1cc(C#N)ccc1[n+]2=O` showed a TGI (MDA-MB-435) of 6.12 µM, a TGI (NCI-H460 lung) greater than 100 µM and a TGI (NCI/ADR-RES ovarian) of 62.9 µM. The TGI (OVCAR-4 ovarian) was 91 µM, the TGI (SW-620 colon) was 56.3 µM and the TGI (SF-539 CNS) was 16.2 µM. It also gave a TGI (SK-MEL-28 melanoma) of 40.2 µM, a TGI (MDA-MB-231 breast) of 59.5 µM and a TGI (LOX IMVI melanoma) of 17.6 µM. The TGI (BT-549 breast) was 51.6 µM, the TGI (U251 CNS) was 16.7 µM and the TGI (M14 melanoma) was 1.67 µM. The TGI (RXF 393 renal) was greater than 100 µM, the TGI (786-0 renal) was 30.8 µM and the TGI (HCT-15 colon) was 4.82 µM. It also gave a TGI (HCT-116 colon) of 24 µM, a TGI (DU-145 prostate) of 16.6 µM and a TGI (HL-60(TB) leukemia) of 71.6 µM. The TGI (UACC-62 melanoma) was 11 µM, the TGI (NCI-H23 lung) was 4.79 µM and the TGI (PC-3 prostate) was 21.7 µM. It also gave a TGI (IGROV1 ovarian) of 26.8 µM, a TGI (ACHN renal) of 12.4 µM and a TGI (OVCAR-8 ovarian) greater than 100 µM. The TGI (TK-10 renal) was 10.8 µM, the TGI (A549 NSCLC) was 10.9 µM and the TGI (MALME-3M melanoma) was 8.06 µM. For the same compound, the TGI (UO-31 renal) was 23.1 µM, the TGI (MOLT-4 leukemia) was 1.38 µM and the TGI (SF-295 CNS) was 3.77 µM. It also gave a TGI (K-562 leukemia) of 97.4 µM, a TGI (UACC-257 melanoma) of 19.4 µM and a TGI (HOP-92 NSCLC) of 28.6 µM. It also gave a TGI (MCF7 breast) greater than 100 µM, a TGI (SR leukemia) of 18.9 µM and a TGI (SF-268 CNS) of 81.3 µM. The TGI (SNB-75 CNS) was 20.3 µM, the TGI (OVCAR-3 ovarian) was 26.1 µM and the TGI (EKVX NSCLC) was 79.1 µM. The TGI (SNB-19 CNS) was greater than 100 µM, the TGI (HS 578T breast) was 18.6 µM and the TGI (SK-OV-3 ovarian) was 43.1 µM. The TGI (KM12 colon) was 12.5 µM, the TGI (HT29 colon) was 10.1 µM and the TGI (SN12C renal) was 20.6 µM. For the same compound, the TGI (SK-MEL-2 melanoma) was 19.2 µM, the TGI (CAKI-1 renal) was 14.6 µM and the TGI (NCI-H522 lung) was 27.7 µM. The TGI (SK-MEL-5 melanoma) was 2.6 µM, the TGI (HOP-62 NSCLC) was 15.6 µM and the TGI (OVCAR-5 ovarian) was 35.9 µM. For the same compound, the TGI (NCI-H226 lung) was 21.7 µM and the TGI (T-47D breast) was 48.6 µM.
`CSc1nc(-c2cc3ccccc3o2)cc(-c2ccc(Cl)cc2)c1C#N` gave a GI50 (MDA-MB-435) greater than 100 µM, a TGI (MDA-MB-435) greater than 100 µM and a GI50 (NCI/ADR-RES ovarian) of 44.9 µM. It also gave a TGI (NCI/ADR-RES ovarian) greater than 100 µM, a GI50 (OVCAR-4 ovarian) greater than 100 µM and a TGI (OVCAR-4 ovarian) greater than 100 µM. It also gave a GI50 (SW-620 colon) greater than 100 µM, a TGI (SW-620 colon) greater than 100 µM and a GI50 (SF-539 CNS) of 2.99 µM. It also gave a TGI (SF-539 CNS) of 14.6 µM, a GI50 (SK-MEL-28 melanoma) greater than 100 µM and a TGI (SK-MEL-28 melanoma) greater than 100 µM. The GI50 (MDA-MB-231 breast) was 3.58 µM, the TGI (MDA-MB-231 breast) was 50 µM and the GI50 (LOX IMVI melanoma) was 9.53 µM. For the same compound, the TGI (LOX IMVI melanoma) was greater than 100 µM, the GI50 (BT-549 breast) was 23.8 µM and the TGI (BT-549 breast) was 75.7 µM. It also gave a GI50 (U251 CNS) of 3.76 µM, a TGI (U251 CNS) of 28.4 µM and a GI50 (M14 melanoma) of 45.5 µM. For the same compound, the TGI (M14 melanoma) was greater than 100 µM, the GI50 (RXF 393 renal) was 3.7 µM and the TGI (RXF 393 renal) was 20.1 µM. The GI50 (786-0 renal) was 7.36 µM, the TGI (786-0 renal) was 76.8 µM and the GI50 (A498 renal) was 27 µM. For the same compound, the TGI (A498 renal) was greater than 100 µM, the GI50 (HCT-116 colon) was 5.11 µM and the TGI (HCT-116 colon) was greater than 100 µM. It also gave a GI50 (DU-145 prostate) of 3.87 µM, a TGI (DU-145 prostate) greater than 100 µM and a GI50 (CCRF-CEM leukemia) greater than 100 µM. It also gave a TGI (CCRF-CEM leukemia) greater than 100 µM, a GI50 (HL-60(TB) leukemia) greater than 100 µM and a TGI (HL-60(TB) leukemia) greater than 100 µM. The GI50 (UACC-62 melanoma) was 5.03 µM, the TGI (UACC-62 melanoma) was greater than 49.8 µM and the GI50 (NCI-H23 lung) was 9.24 µM. The TGI (NCI-H23 lung) was greater than 100 µM, the GI50 (RPMI-8226 leukemia) was greater than 67.6 µM and the TGI (RPMI-8226 leukemia) was greater than 100 µM. It also gave a GI50 (PC-3 prostate) of 8.82 µM, a TGI (PC-3 prostate) greater than 100 µM and a GI50 (IGROV1 ovarian) of 0.706 µM. It also gave a TGI (IGROV1 ovarian) of 13.4 µM, a GI50 (ACHN renal) of 3.03 µM and a TGI (ACHN renal) of 67.7 µM. It also gave a GI50 (OVCAR-8 ovarian) of 3.57 µM, a TGI (OVCAR-8 ovarian) greater than 100 µM and a GI50 (TK-10 renal) of 8.07 µM. For the same compound, the TGI (TK-10 renal) was 31.8 µM, the GI50 (A549 NSCLC) was 4.48 µM and the TGI (A549 NSCLC) was greater than 100 µM. It also gave a GI50 (MALME-3M melanoma) of 20.5 µM, a TGI (MALME-3M melanoma) greater than 100 µM and a GI50 (UO-31 renal) of 1.73 µM. For the same compound, the TGI (UO-31 renal) was greater than 100 µM, the GI50 (MOLT-4 leukemia) was greater than 85 µM and the TGI (MOLT-4 leukemia) was greater than 100 µM. For the same compound, the GI50 (SF-295 CNS) was 6.17 µM, the TGI (SF-295 CNS) was 37.8 µM and the GI50 (K-562 leukemia) was greater than 100 µM. The TGI (K-562 leukemia) was greater than 100 µM, the GI50 (UACC-257 melanoma) was greater than 100 µM and the TGI (UACC-257 melanoma) was greater than 100 µM. It also gave a GI50 (HOP-92 NSCLC) of 3.4 µM, a TGI (HOP-92 NSCLC) of 15.2 µM and a GI50 (MCF7 breast) of 0.352 µM. For the same compound, the TGI (MCF7 breast) was greater than 100 µM, the GI50 (SR leukemia) was 28.6 µM and the TGI (SR leukemia) was greater than 100 µM. It also gave a GI50 (SF-268 CNS) of 18 µM, a TGI (SF-268 CNS) greater than 80.1 µM and a GI50 (SNB-75 CNS) of 5.56 µM. The TGI (SNB-75 CNS) was 26.6 µM, the GI50 (OVCAR-3 ovarian) was 2.58 µM and the TGI (OVCAR-3 ovarian) was greater than 24.2 µM. It also gave a GI50 (EKVX NSCLC) of 0.918 µM, a TGI (EKVX NSCLC) greater than 100 µM and a GI50 (SNB-19 CNS) of 19.7 µM. It also gave a TGI (SNB-19 CNS) greater than 76.5 µM, a GI50 (HS 578T breast) of 22.2 µM and a TGI (HS 578T breast) greater than 64.3 µM. It also gave a GI50 (SK-OV-3 ovarian) of 5.29 µM, a TGI (SK-OV-3 ovarian) of 56.8 µM and a GI50 (KM12 colon) greater than 100 µM. It also gave a TGI (KM12 colon) greater than 100 µM, a GI50 (SN12C renal) of 26.9 µM and a TGI (SN12C renal) greater than 100 µM. For the same compound, the GI50 (CAKI-1 renal) was 5.28 µM, the TGI (CAKI-1 renal) was greater than 73.4 µM and the GI50 (NCI-H522 lung) was 8.67 µM. It also gave a TGI (NCI-H522 lung) greater than 100 µM, a GI50 (SK-MEL-5 melanoma) greater than 100 µM and a TGI (SK-MEL-5 melanoma) greater than 100 µM. The GI50 (HOP-62 NSCLC) was 12.7 µM, the TGI (HOP-62 NSCLC) was greater than 79.6 µM and the GI50 (OVCAR-5 ovarian) was greater than 84.6 µM. For the same compound, the TGI (OVCAR-5 ovarian) was greater than 100 µM, the GI50 (NCI-H226 lung) was 6.28 µM and the TGI (NCI-H226 lung) was greater than 100 µM. The GI50 (T-47D breast) was 0.93 µM and the TGI (T-47D breast) was greater than 100 µM.
